Assay results: US12077503B2, “Substituted cyclic amides and their use as herbicides” (FMC CORPORATION, priority 2015, dated 2024)
Where two headings read alike, the source gives them in different places.

Columns and labels:
Assay type in all cases: in vivo
[1] = test system: barnyardgrass (Echinochloa crus-galli); assay: Test B flooded paddy test; conditions: Echinochloa crus-galli, 360 h, Flood, 250 g ai/ha; visually evaluated after 13 to 15 d; read-out: Plant response rating, Barnyardgrass (0 to 100 scale where 0 is no effect and 100 is complete control)
How it was run: (§1)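 Compound goes directly into floodwater once pots are flooded 3 cm above soil, targeting plants at two leaves; the water depth is then held for the test duration. Plants sit 13–15 d in a greenhouse and are rated visually, 100 denoting complete control.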

[2] = test system: sedge, umbrella (small-flower umbrella sedge, Cyperus difformis); assay: Test B flooded paddy test; conditions: Cyperus difformis, 360 h, Flood, 250 g ai/ha; visually evaluated after 13 to 15 d; read-out: Plant response rating, Sedge, Umbrella (0 to 100 scale where 0 is no effect and 100 is complete control)
How it was run: as §1

rice (Oryra sativa) = assay: Test B flooded paddy test; conditions: Oryza sativa, 360 h, Flood, 250 g ai/ha; visually evaluated after 13 to 15 d; read-out: Plant response rating, Rice (0 to 100 scale where 0 is no effect and 100 is complete control)
How it was run: as §1

[3] = test system: ducksalad (Heteranthera limosa); assay: Test B flooded paddy test; conditions: Heteranthera limosa, 360 h, Flood, 250 g ai/ha; visually evaluated after 13 to 15 d; read-out: Plant response rating, Ducksalad (0 to 100 scale where 0 is no effect and 100 is complete control)
How it was run: as §1

corn (Zea mays) = assay: Test A postemergence; conditions: Zea mays, post-emergence, 240 h, Postemergence; for plant injury at 125 g/ha / Corn plant response rating (crop injury, 0 = no effect, 100 = complete kill) at 125 g/ha: 125 g ai/ha; for plant injury at 125 g/ha: visual rating about 10 d after treatment, read-out: Corn plant response rating (0 to 100 scale); for Corn plant response rating (crop injury, 0 = no effect, 100 = complete kill) at 500 g/ha: 500 g ai/ha, visual injury, 0 to 100 scale (0 no effect, 100 complete control), approx. 10 d; for Corn plant response rating (crop injury, 0 = no effect, 100 = complete kill) at 125 g/ha: visual injury after approx. 10 d, 0 to 100 scale, 100 complete control
How it was run: (§2)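 Ratings of 0 (no effect) to 100 (complete control) come from visual comparison with untreated controls roughly 10 d after treatment. Test chemicals, formulated in a non-phytotoxic solvent mixture with surfactant, were applied either as a preemergence directed soil spray on seeded soil or postemergence to one- to two-leaf plants 2 to 10 cm tall.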

[4] = test system: ryegrass, Italian (Italian ryegrass, Lolium multiflorum); assay: Test A postemergence; conditions: Lolium multiflorum, post-emergence, 240 h, Postemergence; for pest or weed control at 125 g/ha: 125 g ai/ha; for pest or weed control at 500 g/ha: 500 g ai/ha, visual injury, 0 to 100 scale (0 no effect, 100 complete control), approx. 10 d
How it was run: as §2

[5] = test system: pigweed (Amaranthus retroflexus); assay: Test A postemergence; conditions: Amaranthus retroflexus, post-emergence, 240 h, Postemergence; for pest or weed control at 125 g/ha: 125 g ai/ha; for pest or weed control at 500 g/ha: 500 g ai/ha, visual injury, 0 to 100 scale (0 no effect, 100 complete control), approx. 10 d
How it was run: as §2

[6] = test system: wheat (Triticum aestivum); assay: Test A postemergence; conditions: Triticum aestivum, post-emergence, 240 h, Postemergence; for plant injury at 125 g/ha: 125 g ai/ha; for plant injury at 500 g/ha: 500 g ai/ha, visual injury, 0 to 100 scale (0 no effect, 100 complete control), approx. 10 d
How it was run: as §2

Kochia (Kochia scoparia) = assay: Test A preemergence; conditions: Bassia scoparia, pre-emergence, 240 h, 0 to 100 scale (0 no effect, 100 complete control), read-out: Plant response rating, Kochia; for pest or weed control at 500 g/ha: 500 g ai/ha, preemergence; for pest or weed control at 125 g/ha: Preemergence, 125 g ai/ha
How it was run: as §2

[7] = test system: barnyardgrass (Echinochloa crus-galli); assay: Test A preemergence; conditions: Echinochloa crus-galli, pre-emergence, 240 h, 0 to 100 scale (0 no effect, 100 complete control), read-out: Plant response rating, Barnyardgrass; for pest or weed control at 500 g/ha: 500 g ai/ha, preemergence; for pest or weed control at 125 g/ha: Preemergence, 125 g ai/ha
How it was run: as §2

[8] = test system: ragweed (common ragweed, Ambrosia elatior); assay: Test A preemergence; conditions: Ambrosia artemisiifolia, pre-emergence, 240 h, 0 to 100 scale (0 no effect, 100 complete control), read-out: Plant response rating, Ragweed; for pest or weed control at 500 g/ha: 500 g ai/ha, preemergence; for pest or weed control at 125 g/ha: Preemergence, 125 g ai/ha
How it was run: as §2

[9] = test system: ryegrass, Italian (Italian ryegrass, Lolium multiflorum); assay: Test A preemergence; conditions: Lolium multiflorum, pre-emergence, 240 h, 0 to 100 scale (0 no effect, 100 complete control), read-out: Plant response rating, Ryegrass, Italian; for pest or weed control at 500 g/ha: 500 g ai/ha, preemergence; for pest or weed control at 125 g/ha: Preemergence, 125 g ai/ha
How it was run: as §2

[10] = test system: giant foxtail (Setaria faberii); assay: Test A preemergence; conditions: Setaria faberi, pre-emergence, 240 h, 0 to 100 scale (0 no effect, 100 complete control), read-out: Plant response rating, Foxtail, Giant; for pest or weed control at 500 g/ha: 500 g ai/ha, preemergence; for pest or weed control at 125 g/ha: Preemergence, 125 g ai/ha
How it was run: as §2

[11] = test system: pigweed (Amaranthus retroflexus); assay: Test A preemergence; conditions: Amaranthus retroflexus, pre-emergence, 240 h, 0 to 100 scale (0 no effect, 100 complete control), read-out: Plant response rating, Pigweed; for pest or weed control at 500 g/ha: 500 g ai/ha, preemergence; for pest or weed control at 125 g/ha: Preemergence, 125 g ai/ha
[12] = visual rating about 10 d after treatment, read-out: Ryegrass, Italian plant response rating (0 to 100 scale)
[13] = read-out: Plant response rating, Ryegrass, Italian
[14] = visual rating about 10 d after treatment, read-out: Pigweed plant response rating (0 to 100 scale)
[15] = read-out: Plant response rating, Pigweed
[16] = visual rating about 10 d after treatment, read-out: Wheat plant response rating (0 to 100 scale)
[17] = read-out: Plant response rating, Wheat
[18] = visual injury after approx. 10 d, 0 to 100 scale, 0 no effect, 100 complete control, read-out: Plant response rating, Ryegrass, Italian
[19] = visual injury after approx. 10 d, 0 to 100 scale, 0 no effect, 100 complete control, read-out: Plant response rating, Pigweed
[20] = visual injury after approx. 10 d, 0 to 100 scale, 0 no effect, 100 complete control, read-out: Plant response rating, Wheat

Compound	pest or weed control at 250 g/ha [1] [%]	pest or weed control at 250 g/ha [2] [%]	pest or weed control at 250 g/ha (rice (Oryra sativa)) [%]	pest or weed control at 250 g/ha [3] [%]	Corn plant response rating (crop injury, 0 = no effect, 100 = complete kill) at 500 g/ha (corn (Zea mays)) [%]	pest or weed control at 500 g/ha [4, 13] [%]	pest or weed control at 500 g/ha [5, 15] [%]	plant injury at 500 g/ha [6, 17] [%]	pest or weed control at 500 g/ha (Kochia (Kochia scoparia)) [%]	pest or weed control at 125 g/ha (Kochia (Kochia scoparia)) [%]	pest or weed control at 500 g/ha [7] [%]	pest or weed control at 125 g/ha [7] [%]	pest or weed control at 500 g/ha [8] [%]	pest or weed control at 125 g/ha [8] [%]	pest or weed control at 500 g/ha [9] [%]	pest or weed control at 125 g/ha [9] [%]	pest or weed control at 500 g/ha [10] [%]	pest or weed control at 125 g/ha [10] [%]	pest or weed control at 500 g/ha [11] [%]	pest or weed control at 125 g/ha [11] [%]	also measured
CN1C[C@H](c2ccc(C(F)(F)F)cc2)[C@@H](C(=O)Nc2cccc(F)c2C#N)C1=O [Compound 1380]	60	0	0	100	80	60	60	40	90	80	100	90	80	70	50	50	100	100	90	80	plant injury at 125 g/ha (corn (Zea mays)): 50%; pest or weed control at 125 g/ha [4, 12]: 50%; pest or weed control at 125 g/ha [5, 14]: 50%; plant injury at 125 g/ha [6, 16]: 40%
CN1C[C@H](c2ccc(C(F)F)cc2)[C@@H](C(=O)Nc2cccc(F)c2F)C1=O [Compound 1383]	65	0	25	100	90	50	70	80	90	90	100	100	80	80	70	70	100	100	80	80	plant injury at 125 g/ha (corn (Zea mays)): 80%; pest or weed control at 125 g/ha [4, 12]: 40%; pest or weed control at 125 g/ha [5, 14]: 40%; plant injury at 125 g/ha [6, 16]: 60%
O=C1NC[C@H](c2cccc(C(F)(F)F)n2)[C@H]1C(=O)Nc1cccc(F)c1F [Compound 1385]	0	0	0	40	20	20	0	20	20	0	90	90	0	0	0	0	90	90	0	0	Corn plant response rating (crop injury, 0 = no effect, 100 = complete kill) at 125 g/ha (corn (Zea mays)): 0%; pest or weed control at 125 g/ha [4, 18]: 0%; pest or weed control at 125 g/ha [5, 19]: 0%; plant injury at 125 g/ha [6, 20]: 0%
CSc1ccccc1NC(=O)[C@H]1C(=O)N(C)C[C@@H]1c1ccc(C(F)(F)F)cc1 [Compound 1391]	0	0	0	75	80	60	90	60	90	90	100	90	90	90	70	30	100	100	90	90	Corn plant response rating (crop injury, 0 = no effect, 100 = complete kill) at 125 g/ha (corn (Zea mays)): 0%; pest or weed control at 125 g/ha [4, 18]: 40%; pest or weed control at 125 g/ha [5, 19]: 70%; plant injury at 125 g/ha [6, 20]: 30%
